The text below walks through data of patent US20170168056A1, “METHODS AND COMPOSITIONS FOR DETECTING AND MODULATING CANCER CELLS” (Massachusetts Institute of Technology, priority 2015, published 2017).

Data set [1] has as its system MDA-MB-231 cells. Put plainly: Cell viability assay (Prestoblue) in MDA-MB-231 cells expressing GFP, GFP-Mena or GFP-Mena^INV. As to conditions: 72 h; for effect of Mena or Mena^INV expression on fraction of viable cells / response to drug: range of concentrations.
Protocol: Cell viability assays were performed in a 96-well plate. 5,000 cells were plated per well and treated with drug 24 hours later. Cell viability was assayed 72 hours later using the PrestoBlue Cell Viability Reagent (Life Technologies), according to manufacturer's protocol. Fluorescence was measured and normalized to cells exposed to vehicle. The activity area was calculated from doseresponse plots using Matlab. All measurements were repeated in triplicate.
Data set [2] deals with MDA-MB-231 xenograft tumors. Put plainly: Xenograft tumor growth in NOD-SCID mice with chemotherapy treatment. The class given is in vivo, mouse. As to conditions: three doses Taxol/paclitaxel 10 mg/kg or two doses Doxorubicin 5 mg/kg. The procedure:
Mena or Mena^INV expression blocks Taxol efficacy on tumors in treated animals. Mice with xenograft tumors were generated by injection of MDA-MB-231 cells expressing GFP (Control), GFP-Mena (Mena) or GFP-Mena^INV (Mena^INV) into the mammary fat pads of NOD-SCID mice. […] Tumor size was measured before and after treatment. […] These in vivo findings are consistent with the results obtained in the in vitro data, and indicate that Men/Mena^INV promotes resistance to Taxol as judged by tumor growth.
Xenograft tumor generation and in vivo chemotherapy treatment. All animal experiments were approved by the MIT Division of Comparative Medicine. 2 million MDA-MB-231 cells expressing different MENA isoforms (in PBS and 20% collagen I) were injected into the 4th right mammary fat pad of six week-old female NOD-SCID mice (Taconic). When the tumors reached 1 cm in diameter, mice were treated every five days with either three doses of paclitaxel at 10 mg/kg in 1% DMSO, 3% PEG (MW 400), 1% Tween 80 in PBS by intra-peritoneal injection. In parallel, mice were treated with only in 1% DMSO, 3% PEG (MW 400), 1% Tween 80 in PBS as a vehicle control. One day after the last injection, tumors were measured and mice were use for intravital imaging and then sacrificed. Their tumors and lungs were fixed in 10% formalin overnight, their bone marrow were collected using PBS and cultured in DMEM with 10% fetal bovine serum. The number of tumor cell colonies in cultured bone morrow was counted 1 month after collection. The number of metastasis in each lobe of the lung were counted from lung H&E stained sections visualized by light microscopy and counted by two blinded individuals. Each tumor group contained 3-5 mice.
MENA isoform expression is associated with increased tumor growth in vivo during paclitaxel treatment. Whether MENA-associated paclitaxel resistance could also be observed in vivo was examined. Xenograft tumors were generated by injecting MDA-MB-231 cells expressing MENA isoforms into the mammary fat pads of NOD-SCID mice. Mice were treated with paclitaxel once tumors reached 1 cm in diameter (FIG. 30A).

In data set [3] the test system is MDA-MB-231 cells. Put plainly: Proliferation assay (cell count) with combinations of paclitaxel and MEKi. The class given is cell-based, human.
A further data set has as its system microtubules (MT). Put plainly: Immunofluorescence ratio of Glu-MT (stable) to Tyr-MT (dynamic). The class given is cell-based, human. As to conditions: 231-MENA^INV cells, 24 hours. The procedure: Immunofluorescence. Glass bottom dishes (Mattek) were coated with Collagen at 0.1 mg/mL diluted in PBS and 50 μg/mL FN for 1 hour at 37° C. Cells were plated for 1 hour, and then treated with paclitaxel alone or in combination with MEKi for 24 hours. Cells were fixed for 20 minutes in 4% paraformaldehyde in PHEM buffer with 0.1% Gluteraldehyde, and then quenched with sodium borohydrate for 5 minutes. Cells were blocked with 2% BSA in TBS-0.1%TritonX-100 for 30 minutes, and incubated with primary antibodies and then secondary antibodies for 1 hour each, at room temperature. Z series of images were taken on an Applied Precision DeltaVision microscope using Softworx acquisition, an Olympus 60×1.4 NA plan apo objective and a Photometrics CoolSNAP HQ camera. Images were deconvolved using Deltavision Softworx software and objective specific point spread function. Images were analyzed with ImageJ, where the whole cell intensity levels of Tyr- or Glu-MT was measured. Images are pooled from at least 3 independent experiments.
Paclitaxel promotes cell death by increasing the stability of MTs, and pathways driving increased MT dynamics are known to promote resistance to taxanes. Therefore, MT structure and dynamics in MENA isoform expressing cells was examined during paclitaxel treatment. […] Post-translational modification of MTs can regulate their dynamics, and antibodies that detect such modifications can be used to infer the relative dynamics of MT populations; in particular, MT tyrosination indicates a dynamic MT state, while de-tyrosination of MTs is associated with increased stability. The relative abundance of stable (Glu-MT) vs. dynamic (Tyr-MT) MTs was measured in individual cells by immunofluorescence with anti-Glu-MT and anti-Tyr-MT antibodies (FIGS. 37A, 37B).
(§1) The MAPK signaling cascade is among the key pathways known to interact with MTs. Both ERK1/2 interact with MTs; MT stabilization by paclitaxel increases ERK phosphorylation and, in turn, ERK pathway activation increases MT dynamics.

Another data set has as its system ERK, Akt. Put plainly: Western blot for pERK Y204, ERK, pAkt473 and Akt. The class given is cell-based, human. As to conditions: 231-MENA^INV cells; 10 nM paclitaxel, 0.1 μM MEKi, 72 hours. The procedure:
(§2) Western blot. Cells were lysed in 25 mM Tris, 150 mM NaCl, 10% glycerol, 1% NP 40 and […] EDTA with a protease Mini-complete protease inhibitors (Roche) and a phosphatase inhibitor cocktail (PhosSTOP, Roche) at 4° C. for 20 minutes. Protein lysates were separated by SDS-PAGE, transferred to a nitrocellulose membrane and blocked with Odyssey Blocking Buffer (LiCor). Membranes were incubated with primary antibody overnight at 4° C. and Licor secondary antibodies at room temperature for 1 hour. Protein level intensity was measured with Image J.
as §1

A further data set concerns Mena. Put plainly: Mena expression in cultured cells after taxane treatment (Western blot, FACS of GFP). As to conditions: MDA-MB-231 populations expressing GFP, GFP-MENA or GFP-MENA^INV. In kind it is cell-based, human. The procedure: Taxol treatment induces increased Mena protein expression in vitro and in vivo. As high level of Mena or Mena^INV expression correlated with low response to Taxo, we hypothesized that Taxol treatment might affect Mena expression. […]. After 72 h of treatment with the drug, the expression level of Mena was 70% higher than in vehicle-treated cells.
as §2
Paclitaxel treatment selects for high MENA expression in vitro and in vivo. The Examples so far indicate that increased MENA or MENA^INV expression levels are associated with reduced responses to paclitaxel. The effect of paclitaxel treatment on levels of MENA expression in cell populations in vitro and in vivo was examined. First, endogenous MENA expression by Western Blot in 5 breast cancer cell lines that were exposed to 100 nM of paclitaxel or a vehicle control were analyzed (FIG. 33A).
(In general: Immunoblotting shows a protein as a band on a membrane.)

A further data set relates to T47D cells. Kind of data set: Wound closure assay and morphology (circularity), T47D cells with Mena^11a-specific shRNA. The class given is cell-based, human. The following applies: for percent of cell free region filled (gap closure): 48 hours; for circularity of cells at the free edge of the monolayer: perfect circularity=1. The source says: (§3) The Mena^11a knockdown procedure employed shRNAs was based on 97-mer oligos (Invitrogen) comprising the shRNAs amplified by PCR with primers having EcoRI/XhoI sites, and were cloned into the pMSCV-miR30-MLS-GFP vector (gift from Michael Hemann, Koch Institute, MIT). Oligo sequences are:
Signal intensities from antibodies or rhodamine-labeled barbed ends along the cell edge were quantified with a contour-based ImageJ macro. We measured the distribution of signal along the membrane plotted as a function of distance from the cell edge (mean±SEM) and the sum of the intensities in the first 0.65 μm from the cell edge. Circularity measures were performed by manually tracing the cells at the free edge of the epithelial monolayer, and by using the circularity plugin built in ImageJ. In this analysis, a circularity value of 1 indicates a perfect circle while, as the value approaches 0, it indicates an elongated cell shape. For quantitative imaging, we used the same hardware configuration and exposure time for all cell lines analyzed in the same experiment. […] Extracted pixel intensities were exported to Microsoft Excel for analysis and Graph-Pad Prism for graphing.
(§4) Mena^11a-specific depletion enhances cell migration and membrane protrusion. Previously, the effects of Mena^11a on cancer cell motility were evaluated in assays utilizing ectopic expression. To study the role of endogenously expressed Mena^11a on cancer cell motility, we used Mena^11a-KD cells, including T47D and SKBr3 human breast cancer cells which have >80% reduction of Mena^11a protein levels (FIG. 15A-B, 15E-F), in wound closure assays. […] T47D cells yielded similar results (FIG. 15C-D), although complete closure of the control T47D cells took longer than with SKBr3 cells. […] Therefore, depletion of the Mena^11a isoform from cells that normally express both Mena and Mena^11a increased cell migration rates.
Consistent with changes in migration, we observed that the morphology of T47D Mena^11a-KD cells differed from control-KD cells, specifically at the free edge of the monolayer (FIG. 151).

For another data set, the system named is SKBr3 cells. Put plainly: Wound closure assay, SKBr3 cells with Mena^11a-specific shRNA. In kind it is cell-based, human. The following applies: twenty-four hours. The procedure:
as §3, §4

Where a chain is given by its changes, count along the chain named.

With `N.N.[Cl][Pt][Cl]` [Cisplatin], the “effect of Mena or Mena^INV expression on fraction of viable cells / response to drug” value in the data set on MDA-MB-231 cells [1] is recorded as “neither GFP-Mena nor GFP-MenaINV expression affected the fraction of viable MDA-MB-231 cells differently than the GFP controls”; with MDA-MB-231 cells [1] (listed as cisplatin) it was “neither MENA nor MENA^INV expression affected the response”.

On to `COc1cccc2c1C(=O)c1c(O)c3c(c(O)c1C2=O)C[C@@](O)(C(=O)CO)C[C@@H]3O[C@H]1C[C@H](N)[C@H](O)[C@H](C)O1` [Doxorubicin], for which the “growth of control tumors compared to vehicle” value in data set [2] (GFP (Control) tumors) is “significantly decreased growth of control tumors”. The “growth / response of Mena or Mena^INV tumors” value in data set [2] (Mena or Mena^INV expressing tumors) is listed as “decreased response”. Further, the “effect of Mena or Mena^INV expression on fraction of viable cells / response to drug” value in the data set on MDA-MB-231 cells [1] was “neither MENA nor MENA^INV expression affected the response”.

For `COc1cc2c(cc1OC)CN(CCc1ccc(-n3nnc(-c4cc(OC)c(OC)cc4NC(=O)c4cc(=O)c5ccccc5o4)n3)cc1)CC2` [HM30181], the “fraction of viable cells on co-treatment with 100 nM paclitaxel” value in the data set on MDA-MB-231 cells [1] (231-Control cells, HM30181 100 nM) is reported as “negligibly affected”. In addition, in the data set on MDA-MB-231 cells [1] (231-MENA^INV cells, 100 nM paclitaxel), the “paclitaxel efficacy on co-treatment with MDR1 inhibitor” value is recorded as “did not increase paclitaxel efficacy”.

Consider `O=C(NOC[C@H](O)CO)c1ccc(F)c(F)c1Nc1ccc(I)cc1F` [PD0325901], for which the “concentrations needed to obtain high levels of cell death relative to 231-Control cells” value in the data set on MDA-MB-231 cells [3] (231-MENA and 231-MENA^INV cells) is “higher concentrations of each drug were needed”. Further, the “combination of paclitaxel and MEKi in proliferation assay (cell death)” value in the data set with MDA-MB-231 cells [3] (all cell lines, 72 hours, both drugs simultaneously) was “significant additive effects”. For the same molecule, in the data set with microtubules (MT) (paclitaxel plus MEKi), the “stable MTs relative to dynamic MTs, both drugs simultaneously” value was “induced increases in stable MTs relative to dynamic MTs”. Further, in the data set on microtubules (MT) (single drug), the “stable MTs relative to dynamic MTs, either drug alone” value is “had no effect”. For the same molecule, in the data set with ERK, Akt, the “paclitaxel-induced ERK phosphorylation” value is listed as “blocked”.

Take `CC(=O)O[C@@]12CO[C@@H]1C[C@H](O)[C@@]1(C)C(=O)[C@H](O)C3=C(C)[C@@H](OC(=O)[C@H](O)[C@@H](NC(=O)OC(C)(C)C)c4ccccc4)C[C@@](O)([C@@H](OC(=O)c4ccccc4)[C@H]21)C3(C)C` [docetaxel]: the “FACS analysis of GFP expression levels after taxane treatment” value with Mena was “selected for cells expressing higher levels of GFP-MENA or GFP-MENA^INV, but not of GFP”.

B1: sh-1C: paired control shRNA for sh-1, SEQ ID NO. 7 (nucleic acid)
guide: TGCTGTTGACAGTGAGCGAATGATTCCTTAAACAGCCCAATAGTGAAGCCACAGATGTATTGGGCTGTTTAAGGAATCATGTGCCTACTGCCTCGGA
With B1, in the data set with T47D cells, the “percent of cell free region filled (gap closure)” value is 50.41% ±3.7 and the “circularity of cells at the free edge of the monolayer” value is given as 0.683. Further, the “percent of initially cell-free region filled (gap closure)” value in the data set on SKBr3 cells is 49.03% ±4.2.

B2: sh-1: shRNA targeting the 11a insertion of Mena^11a, SEQ ID NO. 6 (nucleic acid)
guide: B1 guide with A19C, C27A, A31C, C36A, G64T, T69G, G73T, G81A
As for B2, in the data set on T47D cells, the “percent of cell free region filled (gap closure)” value is listed as 78.39% ±4.8 and the “circularity of cells at the free edge of the monolayer” value came out at 0.614. Besides, the “percent of initially cell-free region filled (gap closure)” value in the data set on SKBr3 cells was 74.76% ±4.8.

B3: sh-2C: paired control shRNA for sh-2, SEQ ID NO. 9 (nucleic acid)
guide: TGCTGTTGACAGTGAGCGAAACAGGTCATAGGATTAATTATAGTGAAGCCACAGATGTATAATTAATCCTATGACCTGTTCTGCCTACTGCCTCGGA
Regarding B3, in the data set with T47D cells, the “percent of cell free region filled (gap closure)” value is 40.38% ±4.2 and the “circularity of cells at the free edge of the monolayer” value was 0.640. Moreover, the “percent of initially cell-free region filled (gap closure)” value with SKBr3 cells is 55.24% ±1.8.

B4: sh-2: shRNA targeting the 11a insertion of Mena^11a, SEQ ID NO. 8 (nucleic acid)
guide: B3 guide with A19C, A28C, G31T, A36C, T64G, C69A, T72G, C81A
With B4, in the data set with T47D cells, the “percent of cell free region filled (gap closure)” value is 70.20% ±8.8 and the “circularity of cells at the free edge of the monolayer” value was 0.509. The “percent of initially cell-free region filled (gap closure)” value in the data set on SKBr3 cells is recorded as 77.84% ±3.6.
